Test results reported in ChEMBL document CHEMBL3507680, “University of Dundee, Gates Library screen for HepG2 cell viability”.

experiment: Human HepG2 cell viability assay in 384 well format; format: toxicity, cell-based; design: dose 125 nL, time 70.5 hour; concentration not given beside the values; details: HepG2 cells, read-out: Inhibition

| Structure (SMILES) | cytotoxicity at 70.5 h |
| --- | --- |
| O=C(c1ccoc1)N1CCCn2cnc(COCC3CC3)c2C1 | -10.8% |
| Cc1noc(C)c1CN1CC[C@H]2C[C@@H](c3nccs3)O[C@@H]2C1 | -14.7% |
| Cc1cc(CN2CC[C@H]3C[C@H](C)O[C@@H]3C2)no1 | -13.8% |
| c1ccc(CN2C[C@@H]3OCCN(CC4CCCO4)[C@@H]3C2)nc1 (some centres not stated) | -9.93% |
| COc1cc(N2C[C@@H]3COC[C@]3(COc3ccc(C#N)cn3)C2)ncn1 | 7.01% |
| CN1CCN(c2ncnc3c2c(C(=O)NC2CC2)c2ccccn23)CC1 | 5.64% |
| O=C(C1CCOC1)N1CCc2ncc(CNc3ccccn3)n2CC1 (configuration not stated) | 0.605% |
| O=C(c1ccc(-c2cn[nH]c2)nc1)N1CCC(N2CCOCC2)CC1 | -3.67% |
| CCc1ncc(CN2CCOC(Cc3cccc(F)c3)C2)cn1 (configuration not stated) | -9.07% |
| O[C@@]1(CNCCOc2ccccc2)CCCN2CCCC[C@@H]21 | 28% |
| CN(Cc1nc(Cc2cccc(C(F)(F)F)c2)no1)CC1CCCCO1 (configuration not stated) | -11.5% |
| COCCCN1C(=O)CC[C@H]2CN(c3ccc(C(N)=O)cn3)CC[C@H]21 | 4.03% |
| COc1ccc2[nH]cc(CCNC(=O)C3CCCN(C(C)=O)C3)c2c1 (configuration not stated) | -9.73% |
| Cn1cnnc1SCC(=O)NC1CC(=O)N(CCc2ccccc2)C1 (configuration not stated) | -8.79% |
| CCN(CC)C(=O)[C@@H]1C[C@@H](NC(=O)c2ccn(C(C)(C)C)c2)CN1C | -4.81% |
| Cc1cc(C)n(CCC(=O)N2CCCCC2c2nccs2)n1 (configuration not stated) | 11.9% |
| Cc1cc(CN(C)CC2(O)CCCN(CCC3CCCCC3)C2=O)no1 (configuration not stated) | 48.7% |
| O=C(O)c1cc(-c2cc[nH]n2)cc(S(=O)(=O)N2CCCCCC2)c1 | -4.16% |
| Cc1nonc1CN(C)Cc1c[nH]nc1-c1ccc(F)cc1F | -14.1% |
| CCc1ncc(C(=O)N2C[C@@H](C)O[C@@H](C)C2)cn1 | -5% |
| Cc1ccc(C(=O)N2CCC(n3cc(CN)nn3)CC2)cc1F | -5.32% |

| Structure (SMILES) | cytotoxicity at 70.5 h |
| --- | --- |
| O=C(Cc1c[nH]c(=O)[nH]c1=O)N1CCC2(CCC(=O)N(C3CC3)C2)CC1 | 0.183% |
| CN(CCCc1cnn(C)c1)C(=O)Nc1cccc(C#N)c1 | -6.3% |
| Cn1ccnc1-c1nc2cc(S(=O)(=O)N3CCCC3)ccc2n1C | -26.2% |
| CCc1ccc(CN(C)C(=O)C2CC(=O)N(c3cccc(O)c3)C2)nc1 (configuration not stated) | -0.196% |
| Cc1noc(C)c1CN(C)Cc1cnc(N2CCOCC2)nc1 | -4.31% |
| OCC1CCCCN1Cc1cc(O)c2cccc(F)c2n1 (configuration not stated) | 20.1% |
| O=S1(=O)C[C@@H]2[C@H](C1)N(Cc1cc(F)cc(Cl)c1)CCN2CCO | -0.108% |
| CCCc1nc(N2CCC(CCO)CC2)c2cnn(C)c2n1 | -2.39% |
| O=C(NCc1nnc2n1CCCC2)c1ccc(C2CCCO2)s1 (configuration not stated) | 18.3% |
| O=S1(=O)C[C@@H]2[C@H](C1)N(Cc1ccoc1)CCN2Cc1ccncc1 | -5.67% |
| Cc1ccsc1C(=O)N1C[C@@H]2CN(Cc3ccoc3)CCO[C@@H]2C1 | -1.7% |
| CCOCC1CN(Cc2ccc(OC)cc2)Cc2nn(C)cc21 (configuration not stated) | 25.5% |
| Cn1cc(N2CC3(COCCN(Cc4ccsc4)C3)OCC2=O)cn1 (configuration not stated) | 22.6% |
| O=C1COC2(COCCN(Cc3ccsc3)C2)CN1c1ccc(F)cc1 (configuration not stated) | -2.28% |
| Cn1cc(C(=O)N2CC[C@@H]3[C@@H]2CCN3Cc2cccnc2)cn1 | -14.5% |
| c1cnc(N2CCC3(CCN(Cc4ccncc4)CC3)CC2)nc1 | -15.7% |
| COc1cc(N2C[C@@H]3COC[C@]3(COCc3cccc(C)n3)C2)ncn1 | -0.577% |
| COc1cccc(CN2C[C@@H]3COC[C@]3(COCc3ccncc3)C2)c1 | 5.79% |
| CCc1ccc(CN2CCN(C)c3ncccc3C2)o1 | 24.1% |
| Cc1ccc2c(n1)N(Cc1cccnc1)CCN(C(=O)C1CCC1)C2 | -12.9% |
| O=C(c1cccnc1)N1CCn2nnc(COc3cccnc3)c2C1 | -3.89% |
